Drawing on US20240076293A1, “Compositions and Methods for Inhibiting Fibrosis, Inflammation and Cancer” (Georgia Tech Research Corporation, priority 2020, published 2024), this text covers IC50 for eight compounds.

Holding throughout (assay type): cell-based
One experiment deals with Hep-G2. The experiment is described as follows: Anti-proliferation IC50, Hep-G2. The note with it: Homo sapiens, HepG2; Table 2, compounds of formula II; read-out: Anti-proliferation IC50 Hep-G2.
In another experiment the test system is VERO. The experiment is described as follows: Anti-proliferation IC50, VERO. The conditions noted are these: Chlorocebus sabaeus, Table 2, compounds of formula II, read-out: Anti-proliferation IC50 VERO.
The subject of the next experiment is A549. The experiment is described as follows: Anti-proliferation IC50, A549. The conditions noted are these: Homo sapiens, Table 2, compounds of formula II, read-out: Anti-proliferation IC50 A549.
A further experiment deals with MRC-5. The experiment is described as follows: Anti-proliferation IC50, MRC-5. The conditions noted are these: Homo sapiens, MRC5; Table 2, compounds of formula II.

Consider `CC[C@@H]1OC(=O)[C@@H](C)[C@H](O)[C@@H](C)[C@H](O[C@H]2O[C@@H](C)C[C@@H](N(C)Cc3ccc(-c4cn(CCCNC(=O)CCCC[C@H]5CCSS5)nn4)cc3)[C@@H]2O)C(C)(O)C[C@H](C)CN(C)[C@@H](C)[C@H](O)[C@@]1(C)O` (some centres unmarked), for which the IC50 amounted to 157 ± 11.4 µM in the experiment with Hep-G2, 168 ± 19.7 µM in the experiment on VERO, 92.9 ± 13 µM in the experiment on A549 and 145 ± 3.5 µM with MRC-5.

Turning to `CC[C@@H]1OC(=O)[C@@H](C)[C@H](O[C@H]2C[C@@](C)(OC)[C@@H](O)[C@H](C)O2)[C@@H](C)[C@H](O[C@H]2O[C@@H](C)C[C@@H](N(C)C)[C@@H]2OC(=O)/C=C/C=C/c2ccc3c(c2)OCO3)C(C)(O)C[C@H](C)CN(C)[C@@H](C)[C@H](O)[C@@]1(C)O` (some centres unmarked), the IC50 in the experiment with Hep-G2 was 5 ± 0.5 µM; in the experiment with VERO, 13.2 ± 1.5 µM; in the experiment with A549, 15.6 ± 2.6 µM; with MRC-5 it was 3.8 ± 0.8 µM.

As to `CC[C@@H]1OC(=O)[C@@H](C)[C@H](O[C@H]2C[C@@](C)(OC)[C@@H](O)[C@H](C)O2)C(C)[C@H](O[C@H]2O[C@@H](C)C[C@@H](N(C)C(=O)/C=C/C=C/c3ccc4c(c3)OCO4)[C@@H]2O)C(C)(O)C[C@H](C)CN(C)[C@@H](C)[C@H](O)[C@@]1(C)O` (some centres unmarked), the IC50 in the experiment on Hep-G2 was found to be 10.2 ± 1.9 µM; with VERO, 12.9 µM; in the experiment on A549, 19.6 ± 1.8 µM; in the experiment with MRC-5 it was 11.4 ± 0.4 µM.

Take `CC[C@H]1OC(=O)[C@H](C)[C@@H](O[C@H]2C[C@@](C)(OC)[C@@H](O)[C@H](C)O2)[C@H](C)[C@@H](O[C@@H]2O[C@H](C)C[C@H](N(C)Cc3ccc(-n4cc(C)ccc4=O)cc3)[C@H]2O)[C@](C)(O)C[C@@H](C)CN(C)[C@H](C)[C@@H](O)[C@]1(C)O` [Compound 11a]: the IC50 stood at 33 ± 5.4 µM with Hep-G2, 47.2 ± 0.4 µM with VERO, 47.2 ± 5.1 µM in the experiment with A549 and 55.8 ± 1.9 µM with MRC-5.

As to `CC[C@H]1OC(=O)[C@H](C)[C@@H](O[C@H]2C[C@@](C)(OC)[C@@H](O)[C@H](C)O2)[C@H](C)[C@@H](O[C@@H]2O[C@H](C)C[C@H](N(C)Cc3cn(Cc4ccc(-n5cc(C)ccc5=O)cc4)nn3)[C@H]2O)[C@](C)(O)C[C@@H](C)CN(C)[C@H](C)[C@@H](O)[C@]1(C)O` [Compound 11b], the IC50 in the experiment with Hep-G2 was found to be 234 ± 31.1 µM; with VERO, 122 ± 19.4 µM; in the experiment with A549, 265 ± 4 µM; in the experiment on MRC-5, 121 ± 14.1 µM.

Consider `CC[C@H]1OC(=O)[C@H](C)[C@@H](O[C@H]2C[C@@](C)(OC)[C@@H](O)[C@H](C)O2)[C@H](C)[C@@H](O[C@@H]2O[C@H](C)C[C@H](N(C)Cc3ccc(-c4cn(Cc5ccc(-n6cc(C)ccc6=O)cc5)nn4)cc3)[C@H]2O)[C@](C)(O)C[C@@H](C)CN(C)[C@H](C)[C@@H](O)[C@]1(C)O` [Compound 11c], for which the IC50 in the experiment with Hep-G2 is 11.1 ± 0.3 µM; with VERO, 16.2 ± 2.8 µM; in the experiment with A549 it was 18.4 ± 4.4 µM; in the experiment on MRC-5, 13.4 ± 0.1 µM.

As for `CC[C@H]1OC(=O)[C@H](C)[C@@H](O[C@H]2C[C@@](C)(OC)[C@@H](O)[C@H](C)O2)[C@H](C)[C@@H](O[C@@H]2O[C@H](C)C[C@H](N(C)CCc3ccc(-n4cc(C)ccc4=O)cc3)[C@H]2O)[C@](C)(O)C[C@@H](C)CN(C)[C@H](C)[C@@H](O)[C@]1(C)O` [Compound 13a], the IC50 in the experiment with Hep-G2 came out at 27.2 ± 2.3 µM; in the experiment with VERO it was 30.3 ± 5.2 µM; with A549, 40.8 ± 4 µM; with MRC-5, 36.1 ± 3.3 µM.

`CC[C@H]1OC(=O)[C@H](C)[C@@H](O[C@H]2C[C@@](C)(OC)[C@@H](O)[C@H](C)O2)[C@H](C)[C@@H](O[C@@H]2O[C@H](C)C[C@H](N(C)Cc3cn(CCc4ccc(-n5cc(C)ccc5=O)cc4)nn3)[C@H]2O)[C@](C)(O)C[C@@H](C)CN(C)[C@H](C)[C@@H](O)[C@]1(C)O` [Compound 13b]: the IC50 with Hep-G2 came out at 163.4 ± 1.6 µM; in the experiment on VERO, 151 ± 30.6 µM; in the experiment with A549, 144 ± 24.5 µM; in the experiment with MRC-5, 172 ± 26.9 µM.
